The experiment has as its target SHP2 (Homo sapiens (Human), UniProt Q06124). The experiment in a line: SHP2 allosteric inhibition assay (DiFMUP substrate, bisphos-IRS1 peptide activation). The settings on record: 0.33 nM SHP2, 0.5 μM bisphos-IRS1 peptide, 100 uM DiFMUP, room temperature. Format: biochemical. How it is done:
At the basal state, SHP2 is auto-inhibited and access of substrates to the catalytic site is blocked by the […] interactions between the SH2 domains and the PTP domain. When bis-tyrosyl-phosphorylated peptides bind to SH2 domain of SHP2, the PTP domain becomes available for substrate recognition and reaction catalysis and SHP2 is allosterically activated. SHP2 catalytic activity can be measured using a fluorogenic artificial substrate DiFMUP.
The phosphatase reactions were carried out at room temperature in 384-well black polystyrene plates (Greiner Bio-One, Cat #784076) using assay buffers containing 60 mM HEPES, pH 7.2, 75 mM NaCl, 75 mM KCl, 1 mM EDTA, 0.05% P-20, and 5 mM DTT.
0.33 nM of SHP2 was co-incubated with of 0.5 μM of bisphos-IRS 1 peptide (sequence: H2N-LN(pY)IDLDLV(dPEG8)LST(pY)ASINFQK-amide) and various concentrations of compounds for 30-60 min at room temperature. Then the reaction was initiated by addition of the surrogate substrate DiFMUP (Invitrogen, Cat #D6567, 100 uM final).
The real-time conversion of DiFMUP to DiFMU (6,8-difluoro-7-hydroxyl-4-methyl-coumarin) was measured every 5 min for 30 min using a microplate reader (CLARIOstar, BMG Labtech) with excitation and emission wavelengths of 340 nm and 450 nm, respectively. Initial reaction rates were determined by linear fitting of the data and the inhibitor dose response curves were analyzed using normalized IC50 regression curve fitting with control-based normalization.
Sequence of SHP2 (Q06124 whole entry, the tested form may be a part): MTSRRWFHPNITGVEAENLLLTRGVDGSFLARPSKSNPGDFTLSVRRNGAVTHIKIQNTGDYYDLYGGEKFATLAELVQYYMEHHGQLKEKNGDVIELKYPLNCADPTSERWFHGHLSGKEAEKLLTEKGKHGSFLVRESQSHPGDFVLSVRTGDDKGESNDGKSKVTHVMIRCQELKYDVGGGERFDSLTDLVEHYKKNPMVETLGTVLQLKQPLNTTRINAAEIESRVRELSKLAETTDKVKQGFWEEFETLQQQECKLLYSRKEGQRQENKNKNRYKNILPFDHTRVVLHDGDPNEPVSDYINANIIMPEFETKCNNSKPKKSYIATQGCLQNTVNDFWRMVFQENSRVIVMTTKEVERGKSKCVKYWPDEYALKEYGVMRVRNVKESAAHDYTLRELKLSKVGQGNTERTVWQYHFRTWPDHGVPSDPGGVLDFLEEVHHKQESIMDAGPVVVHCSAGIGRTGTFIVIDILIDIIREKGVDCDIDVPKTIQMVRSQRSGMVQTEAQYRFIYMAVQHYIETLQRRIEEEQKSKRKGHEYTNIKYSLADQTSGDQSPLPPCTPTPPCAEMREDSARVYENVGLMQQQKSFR
With `C[C@@H]1OCC2(CCN(c3ncc(Sc4cc(N)nc5c4OC[C@@H]4CCCN54)nc3CO)CC2)[C@@H]1N` [Compound 35, formic acid; (3-((3S,4S)-4-amino-3-methyl-2-oxa-8-azaspiro[4.5]decan-8-yl)-6-(((S)-2-amino-6a,7,8,9-tetrahydro-6H-pyrido[3,2-b]pyrrolo[1,2-d][1,4]oxazin-4-yl)thio)pyrazin-2-yl)methanol], the IC50 stood at 18 nM. The same measure, in the same setting: next, `C[C@@H]1OCC2(CCN(c3ncc(Sc4ccnc5c4OC[C@@H]4C[C@@H](OC(N)=O)CN54)nc3CO)CC2)[C@@H]1N` [Compound 23, (6aS,8R)-4-((5-((3 S,4S)-4-amino-3-methyl-2-oxa-8-azaspiro[4.5]decan-8-yl)-6-(hydroxymethyl)pyrazin-2-yl)thio)-6a,7,8,9-tetrahydro-6H-pyrido[3,2-b]pyrrolo[1,2-d][1,4]oxazin-8-yl Carbamate]: 8 nM; `C[C@@H]1OCC2(CCN(c3ncc(Sc4ccnc5c4OC[C@@H]4C[C@H](CO)CN54)nc3CO)CC2)[C@@H]1N` [Compound 41, (3-((3S,4S)-4-amino-3-methyl-2-oxa-8-azaspiro[4.5]decan-8-yl)-6-(((6aS,8S)-8-(hydroxymethyl)-6a,7,8,9-tetrahydro-6H-pyrido[3,2-b]pyrrolo[1,2-d][1,4]oxazin-4-yl)thio)pyrazin-2-yl)methanol]: 5 nM; `COCOC[C@H]1C[C@H]2COc3c(Sc4cnc(N5CCC6(CC5)CO[C@@H](C)[C@H]6N)c(CO)n4)ccnc3N2C1` [Compound 31, (3-((3S,4S)-4-amino-3-methyl-2-oxa-8-azaspiro[4.5]decan-8-yl)-6-(((6aS,8S)-8-((methoxymethoxy)methyl)-6a,7,8,9-tetrahydro-6H-pyrido[3,2-b]pyrrolo[1,2-d][1,4]oxazin-4-yl)thio)pyrazin-2-yl)methanol]: 4.2 nM. On the same count and under the same terms, next, `COCOC[C@H]1C[C@H]2COc3c(Sc4cnc(N5CCC6(CC5)Cc5ncccc5[C@H]6N)cn4)ccnc3N2C1` [Compound 46, (S)-1′-(5-(((6aS,8S)-8-((methoxymethoxy)methyl)-6a,7,8,9-tetrahydro-6H-pyrido[3,2-b]pyrrolo[1,2-d][1,4]oxazin-4-yl)thio)pyrazin-2-yl)-5,7-dihydrospiro[cyclopenta[b]pyridine-6,4′-piperidin]-5-amine]: 3.9 nM.

For the compound `COC[C@H]1C[C@H]2COc3c(Sc4ncc(N5CCC6(CC5)CO[C@@H](C)[C@H]6N)nc4N)ccnc3N2C1` [Compound 45, (3S,4S)-8-(6-amino-5-(((6aS,8S)-8-(methoxymethyl)-6a,7,8,9-tetrahydro-6H-pyrido[3,2-b]pyrrolo[1,2-d][1,4]oxazin-4-yl)thio)pyrazin-2-yl)-3-methyl-2-oxa-8-azaspiro[4.5]decan-4-amine], it took 9.4 nM to reach half-maximal inhibition (IC50).

In turn, `C[C@@H]1OCC2(CCN(c3ncc(Sc4ccnc5c4OC[C@@H]4C[C@H](O[C@@H]6CCOC6)CN54)nc3CO)CC2)[C@@H]1N` [Compound 12, (3-((3S,4S)-4-amino-3-methyl-2-oxa-8-azaspiro[4.5]decan-8-yl)-6-(((6aS,8S)-8-(((R)-tetrahydrofuran-3-yl)oxy)-6a,7,8,9-tetrahydro-6H-pyrido[3,2-b]pyrrolo[1,2-d][1,4]oxazin-4-yl)thio)pyrazin-2-yl)methanol] gave an IC50 of 12 nM. For `C[C@@H]1OCC2(CCN(c3ncc(Sc4ccnc5c4OC[C@@H]4C[C@H](OC(N)=O)CN54)nc3CO)CC2)[C@@H]1N` [Compound 22, (6aS,8S)-4-((5-((3S,4S)-4-amino-3-methyl-2-oxa-8-azaspiro[4.5]decan-8-yl)-6-(hydroxymethyl)pyrazin-2-yl)thio)-6a,7,8,9-tetrahydro-6H-pyrido[3,2-b]pyrrolo[1,2-d]-[1,4]oxazin-8-yl carbamate], the half-inhibitory concentration (IC50) came out at 6 nM. Still for that read-out and setting: next, `CO[C@@H]1C[C@@H]2COc3c(Sc4cnc(N5CCC6(CC5)CO[C@@H](C)[C@H]6N)c(CO)n4)ccnc3N2C1` [Compound 9, (3-((3S,4S)-4-amino-3-methyl-2-oxa-8-azaspiro[4.5]decan-8-yl)-6-(((6aR,8R)-8-methoxy-6a,7,8,9-tetrahydro-6H-pyrido[3,2-b]pyrrolo[1,2-d][1,4]oxazin-4-yl)thio)pyrazin-2-yl)methanol]: 8 nM; `COCOC[C@H]1C[C@H]2COc3c(Sc4ncc(N5CCC6(CC5)Cc5ncccc5[C@H]6N)nc4N)ccnc3N2C1` [Compound 47, (S)-1′-(6-amino-5-(((6aS,8S)-8-((methoxymethoxy)methyl)-6a,7,8,9-tetrahydro-6H-pyrido[3,2-b]pyrrolo[1,2-d][1,4]oxazin-4-yl)thio)pyrazin-2-yl)-5,7-dihydrospiro[cyclopenta[b]pyridine-6,4′-piperidin]-5-amine]: 8.4 nM. `C[C@@H]1OCC2(CCN(c3ncc(Sc4ccnc5c4OC[C@@H]4CCCN54)nc3CO)CC2)[C@@H]1N` [Compound 1, (3-((3S,4S)-4-amino-3-methyl-2-oxa-8-azaspiro[4.5]decan-8-yl)-6-(((S)-6a,7,8,9-tetrahydro-6H-pyrido[3,2-b]pyrrolo[1,2-d][1,4]oxazin-4-yl)thio)pyrazin-2-yl)methanol] yielded an IC50 of 3 nM. Same read-out and setting: next, `COCOC[C@H]1C[C@H]2COc3c(Sc4cnc(N5CCC6(CC5)CO[C@@H](C)[C@H]6N)cn4)ccnc3N2C1` [Compound 42, (3S,4S)-8-(5-(((6aS,8S)-8-((methoxymethoxy)methyl)-6a,7,8,9-tetrahydro-6H-pyrido[3,2-b]pyrrolo[1,2-d][1,4]oxazin-4-yl)thio)pyrazin-2-yl)-3-methyl-2-oxa-8-azaspiro[4.5]decan-4-amine]: 5.9 nM. For `C[C@@H]1OCC2(CCN(c3ncc(Sc4ccnc5c4OC[C@@H]4COCCN54)nc3CO)CC2)[C@@H]1N` [Compound 27, (3-((3S,4S)-4-amino-3-methyl-2-oxa-8-azaspiro[4.5]decan-8-yl)-6-(((S)-6a,7,9,10-tetrahydro-6H-[1,4]oxazino[4,3-d]pyrido[3,2-b][1,4]oxazin-4-yl)thio)pyrazin-2-yl)methanol], the “Shp2 IC50(nM)” value is “one of 26 and 27 is 10 and the other is 8”. As to `CO[C@@H]1C[C@H]2COc3c(Sc4cnc(N5CCC6(CC5)CO[C@@H](C)[C@H]6N)c(CO)n4)ccnc3N2C1` [Compound 6, (3-((3S,4S)-4-amino-3-methyl-2-oxa-8-azaspiro[4.5]decan-8-yl)-6-(((6aS,8R)-8-methoxy-6a,7,8,9-tetrahydro-6H-pyrido[3,2-b]pyrrolo[1,2-d][1,4]oxazin-4-yl)thio)pyrazin-2-yl)methanol], the midpoint of inhibition, the IC50, lay at 6 nM. Still for that read-out and setting: then `COC[C@H]1C[C@H]2COc3c(Sc4cnc(N5CCC6(CC5)CO[C@@H](C)[C@H]6N)c(CO)n4)ccnc3N2C1` [Compound 29, (3-((3S,4S)-4-amino-3-methyl-2-oxa-8-azaspiro[4.5]decan-8-yl)-6-(((6aS,8S)-8-(methoxymethyl)-6a,7,8,9-tetrahydro-6H-pyrido[3,2-b]pyrrolo[1,2-d][1,4]oxazin-4-yl)thio)pyrazin-2-yl)methanol], with 3.6 nM.

The compound `C[C@@H]1OCC2(CCN(c3ncc(Sc4ccnc5c4OC[C@H]4CCCN54)nc3CO)CC2)[C@@H]1N` [Compound 2, (3-((3S,4S)-4-amino-3-methyl-2-oxa-8-azaspiro[4.5]decan-8-yl)-6-(((R)-6a,7,8,9-tetrahydro-6H-pyrido[3,2-b]pyrrolo[1,2-d][1,4]oxazin-4-yl)thio)pyrazin-2-yl)methanol] came in with an IC50 of 4 nM. Take `C[C@@H]1OCC2(CCN(c3ncc(Sc4ccnc5c4OC[C@@H]4C[C@H](COCC6CC6)CN54)nc3CO)CC2)[C@@H]1N` [Compound 33, (3-((3S,4S)-4-amino-3-methyl-2-oxa-8-azaspiro[4.5]decan-8-yl)-6-(((6aS,8S)-8-((cyclopropylmethoxy)methyl)-6a,7,8,9-tetrahydro-6H-pyrido[3,2-b]pyrrolo[1,2-d][1,4]oxazin-4-yl)thio)pyrazin-2-yl)methanol]: the IC50 was found to be 2.3 nM. On the same count and under the same terms, then `C[C@@H]1OCC2(CCN(c3ncc(Sc4ccnc5c4OC[C@@H]4C[C@H](F)CN54)nc3CO)CC2)[C@@H]1N` [Compound 3, (3-((3S,4S)-4-amino-3-methyl-2-oxa-8-azaspiro[4.5]decan-8-yl)-6-(((6aS,8S)-8-fluoro-6a,7,8,9-tetrahydro-6H-pyrido[3,2-b]pyrrolo[1,2-d][1,4]oxazin-4-yl)thio)pyrazin-2-yl)methanol], with 13 nM; and `COCOC[C@H]1C[C@H]2COc3c(Sc4cnc(N5CCC6(CC5)COC5(CCC5)[C@H]6N)c(CO)n4)ccnc3N2C1` [Compound 39, (3-((S)-5-amino-13-oxa-9-azadispiro[3.1.5^6.2^4]tridecan-9-yl)-6-(((6aS,8S)-8-((methoxymethoxy)methyl)-6a,7,8,9-tetrahydro-6H-pyrido[3,2-b]pyrrolo[1,2-d][1,4]oxazin-4-yl)thio)pyrazin-2-yl)methanol], with 7 nM; and `C[C@@H]1OCC2(CCN(c3ncc(Sc4ccnc5c4OC[C@@H]4C[C@H](OCC6CC6)CN54)nc3CO)CC2)[C@@H]1N` [Compound 16, (3-((3S,4S)-4-amino-3-methyl-2-oxa-8-azaspiro[4.5]decan-8-yl)-6-(((6aS,8S)-8-(cyclopropylmethoxy)-6a,7,8,9-tetrahydro-6H-pyrido[3,2-b]pyrrolo[1,2-d][1,4]oxazin-4-yl)thio)pyrazin-2-yl)methanol], with 3 nM.

(Values after patent US10894797B2, “Fused tricyclic ring derivatives as SRC homology-2 phosphatase inhibitors” (Nikang Therapuetics, Inc., priority 2018, dated 2021).)
